From US11654135B2, “Methods for treating colon cancer with compositions comprising amlexanox and immune checkpoint inhibitors” (MOONSHOT PHARMA LLC, priority 2017, dated 2023) come the findings set out here.

The assay concerns MC38 tumor cells. As to the kind of experiment: Example 2: MC38 subcutaneous tumor model with amlexanox and checkpoint inhibitors, tumor volume by caliper. It counts as in vivo, C57BL/6 mice. To be noted: for Mean tumor volume: MC38 s.c., C57BL/6, i.p.: NMDI14 5, PTC124 20, amlexanox 20 (with antibodies) or 10 (alone) mg/kg QD, antibodies 10 mg/kg BIW, 3 weeks; for Mean % Inhibition, Tumor Volume MC38: (mean(C) − mean(T))/mean(C) * 100%, negative values indicate an increase in tumor volume. The procedure:
Animals and cell cultures were maintained as described in Example 1. C57BL/6 mice were inoculated subcutaneously at the right lower flank region with MC38 tumor cells (1×10^6) in 0.1 mL of PBS for tumor development. The treatments were started when the mean tumor size reaches approximately 50 mm^3. The date of tumor cell inoculation was denoted as day 0. All the compounds were administered i.p.
After tumor cell inoculation, the animals were checked daily for morbidity and mortality as well as any effects of tumor growth and treatments on normal behavior such as mobility, visual estimation of food and water consumption, body weight gain/loss, eye/hair matting and any other abnormal effect. Tumor volumes were measured twice weekly at least in two dimensions using a caliper, and the volume expressed in mm3 using the formula: V=0.5 a×b2 where a and b are the long and short diameters of the tumor, respectively. Mean tumor volume for each treatment group over the course of the study is shown in Table 9, and the percent inhibition of tumor volume is shown in Table 10.

For the compound `CC(C)c1ccc2oc3nc(N)c(C(=O)O)cc3c(=O)c2c1` [amlexanox, 2-amino-7-isopropyl-5-oxo-5H-chromeno[2,3-b]pyridine-3-carboxylic acid], the Mean tumor volume reads like this: (Day 7) 17.22 mm3; (Day 11) 145.47 mm3; (Day 14) 286.64 mm3; (Day 18) 982.03 mm3; (Day 21) 1830.00 mm3; (Day 25) 2816.94 mm3. Further, the Mean tumor volume (Day 26 (so in the source)) stood at 3301.20 mm3. Moreover, the “Mean % Inhibition, Tumor Volume MC38” value by setting is: (Study day 7 (Mar. 17, 2017)) −45.19%; (Study day 11 (Mar. 21, 2017)) −29.51%; (Study day 14 (Mar. 24, 2017)) −39.15%; (Study day 18 (Mar. 28, 2017)) −44.97%; (Study day 21 (Mar. 31, 2017)) −63.00%; (Study day 25 (Apr. 4, 2017)) −42.11%. For the same compound, the “Mean % Inhibition, Tumor Volume MC38” value (Study day 28 (Apr. 7, 2017)) is −104.74%.
